Results from patent US20090280096A1, “PANCREATIC ENDOCRINE PROGENITOR CELLS DERIVED FROM PLURIPOTENT STEM CELLS” (priority 2008, published 2009).

B1: BMP4: growth factor BMP-4 (R&D Systems) added to SFD medium days 4-6 (protein, UniProt P12644 293-408, looked up)
Bone morphogenetic protein 4: SPKHHSQRARKKNKNCRRHSLYVDFSDVGWNDWIVAPPGYQAFYCHGDCPFPLADHLNSTNHAIVQTLVNSVNSSIPKACCVPTELSAISMLYLDEYDKVVLKNYQEMVVEGCGCR

Experiments:
[1] = system: pancreatic EBs induced by Pdx1 and Ngn3 (Tet-pdx1/ngn3 ES cells); test: C-peptide secretion assay (RIA) of EBs stimulated with secretagogues; assay type: cell-based, mouse; details: floating EBs with Dox, SFD without N2 and RA, stimulated 1 hour in HKRB buffer; for response of C-peptide secretion to stimulation: glucose 20 mM, tolbutamide 100 μM; for stimulation of C-peptide secretion: KCl 30 mM, Forskolin 10 μM, IBMX 0.5 mM
Protocol: Tet-pdx1/ngn3 ES cells were cultured in SFD conditions. Pdx1 and Ngn3 expression was induced with (Dox+) or without (Dox−) Dox after day 4, and cells were harvested at the indicated time points. (A) CXCR4/c-kit^−/− or CXCR4/c-kit^+/+ cells were sorted in day 4 EBs by using a FACS sorter. Sorted cells were reaggregated and replated at day 6 on gelatin coated plates. EBs were harvested at day 9. Ins1 mRNA levels were quantified by real time PCR and normalized to the 18S mRNA levels. (B) N2 media was added to or omitted from the SFD media for days 0-14. B27, with or without retinoic acid (RA), was combined in SFD for days 0-4 and for day 4-14 (also +/−N2). Ins1 mRNA levels were quantified by real time PCR and normalized to the 18S mRNA levels. (C) Tet-pdx1/ngn3 ES cells were cultured in SFD condition without N2 and RA for 18 days. Cytoplasmic insulin was stained and analyzed by FACS. (D) Floating EBs were cultured in SFD without N2 and RA for 18 days, with or without Dox. EBs were incubated in SFD without N2 and RA for 24 hours and supernatants were harvested. C-peptide, glucagon and somatostatin were measured by RIA or EIA. (E) Floating EBs were cultured in SFD without N2 and RA for 19 days and then were unstimulated or stimulated with KCl (3 or 30 mM), glucose (20 mM), tolbutaminde (100 μM), Forskolin (10 μM) or IBMX (0.5 mM) in HKRB buffer for 1 hour. Supernatants were harvested and C-peptide was measured by RIA.
After culturing EBs for 17-18 days in SFD conditions without N2 and RA with or without Dox (1 μg/ml) as described above, the medium was changed to fresh SFD media containing 2 mM glutamine. The EBs were then incubated for 24 hours as indicated, and the conditioned medium was collected for assay. Concentrations of glucagon and somatostatin in the conditioned medium were measured using enzyme immunoassays (EIAs) specific to glucagon (Yanaihara) or somatostatin (Phoenix Pharmaceuticals) according the manufacturer's instructions. C-peptide was measured by radioimmunoassay (RIA) specific to C-peptide (Linco). For C-peptide secretion assay, day 18 EBs were washed with media were incubated in HEPES-balanced Krebs-Ringer bicarbonate (HKRB) buffer (20 mM HEPES, 103 mM NaCl, 4.8 mM KCl, 0.5 mM CaCl2, 1.2 mM MgSO4, 1.2 mM KH2PO4, 25 mM NaHCO3, 2 mM glucose, pH 7.4) with or without stimulations for 1 hour. C-peptide in the supernatant was measured by a specific RIA. Total protein amounts of EBs in each sample were evaluated by BCA assay and secretion levels for C-peptide, glucagons and somatostatin were adjusted by protein amount.
To evaluate pancreatic hormone secretion, pancreatic EBs were cultured in SFD without N2 and RA for 16-18 days and then EBs were incubated in fresh SFD media for 24 hours. The secretion of pancreatic hormones such as C-peptide, glucagon and somatostatin in the supernatant was evaluated by RIA or EIA. C-peptide, somatostatin and glucagons were not detected in EBs without Dox stimulation. […] Stimulation of C-peptide secretion by treating endocrine progenitor cells with different agents for one hour was also evaluated (FIG. 6E). C-peptide secretion increased around five fold by the addition of 30 mM potassium chloride (KCl). Forskolin and IBMX, which increase intracellular cAMP, also stimulated C-peptide secretion around 2 fold and 3 fold, respectively. No response to glucose or the inhibitors of KATP channel, glibenclamide and tolbutamide, was detected.

[2] = system: Ins1 mRNA in Tet-pdx1/ngn3 Ainv ES cell-derived EBs; test: Ins1 mRNA by real time PCR in EBs cultured in SFD conditions; assay type: cell-based, mouse; details: BMP4 (50 ng/ml) for days 4-6 with Dox, EBs harvested at day 9
Protocol: Tet-pdx1/ngn3 ES cells were cultured in SFD conditions. Pdx1 and Ngn3 expression was induced with (Dox+) or without (Dox−) Dox after day 4 and cells were harvested at the indicated time points. (A, B) Ins1 mRNA levels were quantified by a real time PCR and normalized to the 18S mRNA levels. A. Day 4 EBs were trypsinized and reaggregated with (closed circles) or without BMP4 (open squares) for days 4-6. EBs were harvested at days 6 and 9. B. At day 6, EBs were replated on gelatin coated dishes and floating EBs were transferred to low-cluster dishes at day 7. Attached monolayer EBs (open bars) and floating EBs (closed bars) were harvested at day 9. (C, D) Floating EBs were cultured in SFD conditions with (closed circles) or without (open squares) Dox. Ins1 (C) or Ins2 (D) mRNA levels were quantified by a real time PCR and normalized to the 18S mRNA levels.
For a real time PCR, commercially available assay mixes (Applied Biosystems) for Ins1 (Mm01259683_g1), Ins2 (Mm0731595_gH) and 18S (Hs99999901_s1) were used to quantify mRNA levels, and PCR was performed using a Prism 7700 Sequence Detector (Applied Biosystems). […]
Tet-pdx1/ngn3 Ainv ES cells were cultured in SFD for 2 days and then activin was added for days 2-4 to induce endoderm differentiation. […] Without Dox treatment, Ins1 mRNA was not detected at day 6 or day 9. […]

Row | Molecule | response of C-peptide secretion to stimulation [1] | stimulation of C-peptide secretion [1] | also measured
1 | CCCCNC(=O)NS(=O)(=O)c1ccc(C)cc1 [tolbutamide] | No response |  | 
2 | C=C[C@@]1(C)CC(=O)[C@]2(O)[C@@]3(C)[C@@H](O)CCC(C)(C)[C@@H]3[C@H](O)[C@H](OC(C)=O)[C@@]2(C)O1 [Forskolin] |  | around 2 fold | 
3 | COc1ccc(Cl)cc1C(=O)NCCc1ccc(S(=O)(=O)NC(=O)NC2CCCCC2)cc1 [glibenclamide] | No response |  | 
4 | [Cl-].[K+] [KCl, potassium chloride] |  | around five | 
5 | CC(C)Cn1c(=O)n(C)c(=O)c2[nH]cnc21 [IBMX] |  | ~3 fold | 
6 | B1 |  |  | Ins1 mRNA level normalized to 18S mRNA [2]: 3.1 % of βTC6
